Assay results taken from patent publication US11001591B2, “TRAF 6 inhibitors” (HELMHOLTZ ZENTRUM MUENCHEN—DEUTSCHES FORSCHUNGSZENTRUM FÜR …, priority 2016, dated 2021).

Molecular target: interaction of Ubc13 with Uev1a (Homo sapiens, UniProt P61088+Q13404)
Assay: Ubc13-Uev1a interaction
Type: binding

Chain of interaction of Ubc13 with Uev1a (P61088 whole entry): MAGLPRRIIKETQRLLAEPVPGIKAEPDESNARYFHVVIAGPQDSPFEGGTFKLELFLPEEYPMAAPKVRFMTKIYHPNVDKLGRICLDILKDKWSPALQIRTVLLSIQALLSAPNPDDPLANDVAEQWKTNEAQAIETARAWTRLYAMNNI
Chain of interaction of Ubc13 with Uev1a (Q13404 whole entry): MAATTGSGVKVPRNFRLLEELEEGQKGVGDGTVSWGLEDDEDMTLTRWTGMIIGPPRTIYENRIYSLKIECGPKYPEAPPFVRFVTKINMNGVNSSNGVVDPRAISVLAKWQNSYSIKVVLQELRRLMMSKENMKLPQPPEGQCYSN

## Cc1nn(-c2ccc3nnc(C)n3n2)c(C)c1CCC(=O)N1CCC(Cc2ccccc2)CC1 [Compound 3, 1-(4-benzylpiperidin-1-yl)-3-(3,5-dimethyl-1-(3-methyl-[1,2,4]triazolo[4,3-b]pyridazin-6-yl)-1H-pyrazol-4-yl)propan-1-one]
  binding of Ubc13 to Uev1a: did not affect
